Laboratory results published in patent publication US8119614B2, “Substitution derivatives of N6-benzyladenosine, methods of their preparation, their use for preparation of drugs, cosmetic preparations and growth regulators, pharmaceutical preparations, cosmetic preparations and growth regulators containing these compounds” (Ustav Experimentalni Botaniky Akademie Ved Ceske Republiky, priority 2002, dated 2012).
pIC50: −log10 of the molar value. Like-named read-outs stand apart in the source and are kept apart here.

Experiments:
HOS = assay: In vitro cytotoxic activity, Calcein AM assay, HOS; type: cell-based; conditions: 72 hours
[1] = tested on: human erythroleukaemia K562; assay: In vitro cytotoxic activity, Calcein AM assay, K-562; type: cell-based; conditions: read-out: IC 50 K-562
How it was run: (§1)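 Cells seeded at 10^4 per well, pre-incubated 24 h, then exposed to six 4-fold dilutions (top well concentration usually 166.7 μM, duplicates) for 72 h at 37 °C. Viability read by Calcein AM fluorescence after 1 h; GI50 taken from dose-response curves relative to control wells.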

[2] = tested on: breast carcinoma cell lines MCF-7; assay: In vitro cytotoxic activity, Calcein AM assay, MCF7; type: cell-based, human; conditions: read-out: IC 50 MCF7
How it was run: as §1

mouse fibroblasts NIH3T3 = assay: In vitro cytotoxic activity, Calcein AM assay, NIH-3T3; type: cell-based; conditions: read-out: IC 50 NIH-3T3
How it was run: as §1

[3] = tested on: human malignant melanoma cells G361; assay: In vitro cytotoxic activity, Calcein AM assay, G-361; type: cell-based; conditions: read-out: IC 50 G-361
Description: One of the parameters used, as the basis for cytotoxicity assays, is the metabolic activity of viable cells. For example, a microtiter assay, which uses the Calcein AM, is now widely used to quantitate cell proliferation and cytotoxicity. For instance, this assay is used in drug screening programs and in chemosensitivity testing. Because only metabolically active cells cleave Calcein AM, these assays detect viable cells exclusively. The quantity of reduced Calcein AM corresponds to the number of vital cells in the culture.
Human T-lymphoblastic leukemia cell line CEM; promyelocytic HL-60 and monocytic U937 leukemias; breast carcinoma cell lines MCF-7; cervical carcinoma cells HELA; mouse fibroblasts NIH3T3; human erythroleukaemia K562 and human malignant melanoma cells G361 were used for routine screening of compounds. The cells were maintained in Nunc/Corning 80 cm^2 plastic tissue culture flasks and cultured in cell culture medium (DMEM with 5 g/l glucose, 2 mM glutamine, 100 U/ml penicillin, 100 μg/ml streptomycin, 10% fetal calf serum and sodium bicarbonate).
The cell suspensions that were prepared and diluted according to the particular cell type and the expected target cell density (10^4 cells per well based on cell growth characteristics) were added by pipette (80 μl) into 96/well microtiter plates. Inoculates were allowed a pre-incubation period of 24 hours at 37° C. and 5% CO2 for stabilisation. Four-fold dilutions of the intended test concentration were added at time zero in 20 μl aliquots to the microtiter plate wells. Usually, test compound was evaluated at six 4-fold dilutions. In routine testing, the highest well concentration was 166.7 μM, but it can be the matter of change dependent on the agent. All drug concentrations were examined in duplicates. Incubations of cells with the test compounds lasted for 72 hours at 37° C., in 5% CO2 atmosphere and 100% humidity. At the end of incubation period, the cells were assayed by using the Calcein AM. Ten microliters of the stock solution were pipetted into each well and incubated further for 1 hours. Fluorescence (FD) was measured with the Labsystem FIA Reader Fluoroscan Ascent (UK). The tumour cell survival (GI50) was calculated using the following equitation: GI50=(FDdrug exposed well/mean FDcontrol wells)×100%. The GI50 value, the drug concentration lethal to 50% of the tumour cells, was calculated from the obtained dose response curves (FIG. 3).

[4] = tested on: Human T-lymphoblastic leukemia cell line CEM; assay: In vitro cytotoxic activity, Calcein AM assay, CEM; type: cell-based; conditions: 72 hours
How it was run: as §1

promyelocytic HL-60 = assay: In vitro cytotoxic activity, Calcein AM assay, HL60; type: cell-based, human; conditions: read-out: IC 50 HL60
How it was run: as §1

Q: Which results are given for `OC[C@H]1O[C@@H](n2cnc3c(NCc4ccccc4O)nc(Cl)nc32)[C@H](O)[C@@H]1O` [R2 = Cl, 2-hydroxybenzylamino]?
A: pIC50 (HOS): 5.60; pIC50 ([1]; 72 hours): 4.12; pIC50 ([2]; 72 hours): 4.98; pIC50 (mouse fibroblasts NIH3T3; 72 hours): 4.45; pIC50 ([3]; 72 hours): < 3.78; pIC50 [4]: 6.25; pIC50 (promyelocytic HL-60; 72 hours): 6.42

Q: `OC[C@H]1O[C@@H](n2cnc3c(NCc4cccc(Cl)c4O)nc(Cl)nc32)[C@H](O)[C@@H]1O` [R2 = Cl, 2-hydroxy-3-chlorobenzylamino] was tested. Which pIC50 (HOS) did it give?
A: < 3.78

Q: And the pIC50 ([1]; 72 hours)?
A: 5.00

Q: What about the pIC50 ([2]; 72 hours) of the same molecule?
A: 4.85

Q: And the pIC50 (mouse fibroblasts NIH3T3; 72 hours)?
A: < 3.78

Q: What about the pIC50 ([3]; 72 hours) of the same molecule?
A: 3.93

Q: And the pIC50 [4]?
A: 6.70

Q: And the pIC50 (promyelocytic HL-60; 72 hours)?
A: 7.00

Q: How did the pIC50 (HOS) turn out when `COc1ccccc1CNc1nc(SC)nc2c1ncn2[C@@H]1O[C@H](CO)[C@@H](O)[C@H]1O` [R2 = SCH3,2-methoxyxybenzylamino] was run?
A: 4.46

Q: What about the pIC50 ([1]; 72 hours) of the same molecule?
A: 4.46

Q: What about the pIC50 ([2]; 72 hours) of the same molecule?
A: < 3.78

Q: What about the pIC50 (mouse fibroblasts NIH3T3; 72 hours) of the same molecule?
A: < 3.78

Q: And the pIC50 ([3]; 72 hours)?
A: < 3.78

Q: What about the pIC50 [4] of the same molecule?
A: 4.94

Q: And the pIC50 (promyelocytic HL-60; 72 hours)?
A: 4.99

Q: What does the source list for `C/C(=C\CNc1ncnc2c1ncn2[C@@H]1O[C@H](CO)[C@@H](O)[C@H]1O)CO` [zeatin riboside, reference compound]?
A: pIC50 (HOS): < 3.78; pIC50 ([1]; 72 hours): < 3.78; pIC50 ([2]; 72 hours): < 3.78; pIC50 (mouse fibroblasts NIH3T3; 72 hours): < 3.78; pIC50 ([3]; 72 hours): < 3.78; pIC50 [4]: < 3.78; pIC50 (promyelocytic HL-60; 72 hours): < 3.78

Q: `Nc1nc(NCc2cccc(F)c2)c2ncn([C@@H]3O[C@H](CO)[C@@H](O)[C@H]3O)c2n1` [R2 = NH2,3-fluorobenzylamino] was tested. Which pIC50 (HOS) did it give?
A: < 3.78

Q: And the pIC50 ([1]; 72 hours)?
A: 4.92

Q: And the pIC50 ([2]; 72 hours)?
A: 4.44

Q: What about the pIC50 (mouse fibroblasts NIH3T3; 72 hours) of the same molecule?
A: < 3.78

Q: And the pIC50 ([3]; 72 hours)?
A: 4.68

Q: And the pIC50 [4]?
A: 4.68

Q: What about the pIC50 (promyelocytic HL-60; 72 hours) of the same molecule?
A: 5.47

Q: How did the pIC50 (HOS) turn out when `COc1ccc(CNc2nc(Cl)nc3c2ncn3[C@@H]2O[C@H](CO)[C@@H](O)[C@H]2O)cc1` [R2 = Cl, 4-methoxyxybenzylamino] was run?
A: < 3.78

Q: And the pIC50 ([1]; 72 hours)?
A: < 3.78

Q: And the pIC50 ([2]; 72 hours)?
A: < 3.78

Q: What about the pIC50 (mouse fibroblasts NIH3T3; 72 hours) of the same molecule?
A: < 3.78

Q: And the pIC50 ([3]; 72 hours)?
A: 3.98

Q: What about the pIC50 [4] of the same molecule?
A: < 3.78

Q: And the pIC50 (promyelocytic HL-60; 72 hours)?
A: < 3.78

Q: Which results are given for `OC[C@H]1O[C@@H](n2cnc3c(NCc4ccc(O)cc4)nc(Cl)nc32)[C@H](O)[C@@H]1O` [R2 = Cl, 4-hydroxybenzylamino]?
A: pIC50 (HOS): < 3.78; pIC50 ([1]; 72 hours): < 3.78; pIC50 ([2]; 72 hours): < 3.78; pIC50 (mouse fibroblasts NIH3T3; 72 hours): < 3.78; pIC50 ([3]; 72 hours): < 3.78; pIC50 [4]: 4.40; pIC50 (promyelocytic HL-60; 72 hours): 5.02

Q: With `OC[C@H]1O[C@@H](n2cnc3c(NCc4ccc(O)cc4)ncnc32)[C@H](O)[C@@H]1O` [4-hydroxybenzylamino, 6-(4-hydroxybenzylamino)purine riboside] as the molecule, how does the pIC50 (HOS) read?
A: < 3.78

Q: And the pIC50 ([1]; 72 hours)?
A: < 3.78

Q: What about the pIC50 ([2]; 72 hours) of the same molecule?
A: < 3.78

Q: What about the pIC50 (mouse fibroblasts NIH3T3; 72 hours) of the same molecule?
A: < 3.78

Q: What about the pIC50 ([3]; 72 hours) of the same molecule?
A: < 3.78

Q: What about the pIC50 [4] of the same molecule?
A: 4.40

Q: What about the pIC50 (promyelocytic HL-60; 72 hours) of the same molecule?
A: 5.02

Q: `COc1ccccc1CNc1nc(N)nc2c1ncn2[C@@H]1O[C@H](CO)[C@@H](O)[C@H]1O` [R2 = NH2,2-methoxyxybenzylamino, 2-amino-6-(2-methoxybenzylamino)purine riboside] was tested. Which pIC50 (HOS) did it give?
A: 4.56

Q: And the pIC50 ([1]; 72 hours)?
A: 4.46

Q: What about the pIC50 ([2]; 72 hours) of the same molecule?
A: < 3.78

Q: And the pIC50 (mouse fibroblasts NIH3T3; 72 hours)?
A: < 3.78

Q: And the pIC50 ([3]; 72 hours)?
A: < 3.78

Q: What about the pIC50 [4] of the same molecule?
A: 4.89

Q: What about the pIC50 (promyelocytic HL-60; 72 hours) of the same molecule?
A: 5.11

Q: What does the source list for `Nc1ncnc2c1ncn2[C@@H]1O[C@H](CO)[C@@H](O)[C@H]1O` [adenosine]?
A: pIC50 (HOS; Homo sapiens, HOS): < 3.78; pIC50 ([1]; Homo sapiens, K562, 72 hours): < 3.78; pIC50 ([2]; Homo sapiens, MCF7, 72 hours): < 3.78; pIC50 (mouse fibroblasts NIH3T3; Mus musculus, NIH3T3, 72 hours): < 3.78; pIC50 ([3]; Homo sapiens, G-361, 72 hours): < 3.78; pIC50 ([4]; Homo sapiens): < 3.78; pIC50 (promyelocytic HL-60; Homo sapiens, HL-60, 72 hours): < 3.78
